According to US10377778B2, “Lead and thorium compounds” (Sciencons AS, priority 2017, dated 2019):

How the values were obtained:
[1] = test system: C4-2 cells; assay: Radiolytic stability: cell binding fraction after storage in ^224Ra solution; set-up: species or system human
Protocol: (§1) Initial activity in the solution was about 5 MBq/ml causing an absorbed radiation dose to the solution of about 1.8 Gy after 24 h and 3.3 Gy after 48 hours. The data (Table 2) indicate a slight decline at the longest exposure time but in general a relatively strong radiolytic resistance of the ligand was observed, which is compatible with centralized production and shipment to the end user ^224Ra-based generator solution with or without removal of ^224Ra prior to the administration of product.

[2] = Radiolytic stability: TLC measured RCP when kept in ^224Ra solution; format: physicochemical
Protocol: Thin layer chromatography (TLC) was performed using chromatography strips (model #150-772, Biodex Medical Systems Inc, Shirley, N.Y., USA). A formulation buffer (FB) consisting of 7.5% human serum albumin and 5 mM EDTA in DPBS and adjusted to approximately pH 7 with NaOH was mixed with the antibody conjugates in ratio 2:1 for at least 5 minutes before application to the strips to determine free radionuclide. A small beaker with about 0.5 ml of 0.9% NaCl was used to place strips with a sample spot in. To the strip was typically added 1-4 μl of sample at approximately 10% above the bottom of the strip. After the solvent front had moved to about 20% from the top of the strip, the strip was cut in half and each half was placed in a 5 ml test tube for counting. In this system radiolabeled ligand stays at the bottom half while radionuclide complexed with EDTA migrates to the upper half. It was verified that free cations of both ^212Pb and ^177Lu would complex with EDTA and moved to the top.
as §1

[3] = test system: C4-2 PSMA positive human prostate cells xenografts; assay: Comparative therapy experiment in nude mice with C4-2 xenografts; format: in vivo; details: 52 MBq ^177Lu-PSMA-617 or 320 kBq ^212Pb-ligand 1
Protocol: Male nude mice were inoculated in the flanks with C4-2 PSMA positive human prostate cells and 2 weeks later when tumors were 5-7 mm in diameters. Groups of 8 animals each received saline, 52 MBq of ^177Lu-PSMA-617 or 320 kBq of ^212Pb-p-SCN-Bn-TCMC-PSMA ligand 1. Animals were sacrificed when tumor size reached 20 mm due to animal welfare requirements. […] For ^212Pb the effective half-life was assumed to be 10.6 h, 10% of injected dose per gram decays in tumor and 100% of radiation in a tumor is absorbed in the tumor, 100% retention of ^212Pb and daughters in the tumors and 8 MeV radiation energy per decay. The tumor dosimetry for the injected activities gave on average 35.9 Gy to tumors for ^177Lu-PSMA-617 and 2.06 Gy to tumors for ^212Pb-p-SCN-Bn-TCMC-PSMA ligand 1 groups respectively.

NC(=O)CN1CCN(CC(N)=O)CCN(CC(N)=O)C(Cc2ccc(NC(=S)NCC3CCC(C(=O)NC(Cc4ccc5ccccc5c4)C(=O)NCCCCC(NC(=O)NC(CCC(=O)O)C(=O)O)C(=O)O)CC3)cc2)CN(CC(N)=O)CC1.[212Pb+2] (stereo not shown) [^212Pb-p-SCN-Bn-TCMC-PSMA ligand 1]
Cell binding fraction ([1]; kept in ^224Ra solution 4 h): 52.3% | Cell binding fraction ([1]; kept in ^224Ra solution 24 h (about 1.8 Gy)): 48.16% | Cell binding fraction ([1]; kept in ^224Ra solution 48 h (about 3.3 Gy)): 37.18% | TLC measured RCP ([2]; kept in ^224Ra solution 0.5 h): 93.81% | TLC measured RCP ([2]; kept in ^224Ra solution 1 h): 92.84% | TLC measured RCP ([2]; kept in ^224Ra solution 4 h): 94.75% | TLC measured RCP ([2]; kept in ^224Ra solution 24 h): 94.85% | TLC measured RCP ([2]; kept in ^224Ra solution 48 h): 94.85% | Survival at day 30 after treatment ([3]; groups of 8, saline group 0%): 75% | Median survival ([3]; saline group 15 days): > 30 days
